Source: patent publication US20120100204A1, “TGF-Beta Stimulating Agent Compositions and Combinations” (TCP INNOVATIONS LTD, priority 2007, published 2012)
Marks after values point to notes of the source that are not given here.

Legend:
[1] = test system: tgfb2 mRNA; test: tgfb2 mRNA level by quantitative PCR in human aortic vascular smooth muscle cells; format: cell-based; conditions: 24 hrs
Procedure: (1995) Cardiovasc. Res. 29:848-55). […] The cells were then incubated for either 24 hrs or 72 hrs depending on the experiment. All treatment conditions were established in triplicate. The level of mRNA for tgfb1, tgfb2 and tgfb3 were estimated by quantitative PCR. The media was removed and RNA was carefully prepared using the Ambion RNAqueous4PCR kit (Ambion#1914) in accordance with the manufacturer's instructions. The purity of the RNA and the quantity was assessed spectrophotometrically. […] This analysis results in both a gel-like image as well as electrophoretic data. Indications of RNA degradation are: (a) decreasing ratio of ribosomal bands (b) additional peaks bellow the ribosomal bands (c) Decrease in overall RNA signal (d) shift towards shorter fragments. […] Next, the RNA was converted to cDNA using the ABI High-Capacity cDNA Archive Kit, in accordance with manufacturer's instructions. […] Samples were vortexed to ensure thorough mixing. cDNA was aliquoted into ABI 384 well plates using a multi-channel pipette, 4.5 μl of sample into each well. Samples were assayed in triplicate (that is, nine determinations in total were made for each condition, being three separate assays on each of three replicate culture wells). The assay mix and Universal Master Mix were prepared and aliquoted across the 384 well plates 5.5 μl in each well, using a single channel pipette. […] Universal Master Mix=5 μl; cDNA=4.5 μl. […] Quantitative PCR was performed using several primer/probe sets. […] In all quantitative PCR experiments, several additional controls were included: firstly, a control for each sample is run with no reverse transcription to ensure the mRNA sample is not contaminated with genomic DNA (although the manual design probe/primer sets were all selected to cross an exon/exon boundary, ensuring no detectable amplicon is produced from genomic DNA templates). […]

[2] = test system: human aortic vascular smooth muscle cells; test: toxicity to cultured smooth muscle cells; format: cell-based
Procedure: The cells were cultured (37° C.; 5% CO2) in DMEM+20% foetal calf serum (FCS), and subcultured every 5 days at 1:2 dilution, using 0.02% trypsin/EDTA (Gibco).
For the experiments, the cells were subcultured into 12-well cluster plates at 1×10^5 cells/cm^2, and allowed to grow for 24 hrs. […] The cells were then incubated for either 24 hrs or 72 hrs depending on the experiment. All treatment conditions were established in triplicate.

[3] = test system: DBA/1 mice; test: collagen-induced arthritis, footpad thickness; format: in vivo; conditions: from the booster injection onwards, Tamoxifen 1 mg/kg/day p.o, aspirin 30 mg/kg/day p.o
Procedure: (§1) Collagen-induced arthritis was induced in adult male DBA/1 mice as previously described (Courtenay et al. (1980) Nature 283:666-8). Adult (12 week old) male DBA/1 mice were divided into groups of six animals. Mice received 100 μg per mouse of bovine type II collagen (Sigma) in Freunds Complete Adjuvant (FCA) by the subcutaneous route, while a control group received an identical injection of type I collagen in FCA. Twenty-one days later, all groups of mice received an intraperitoneal booster injection containing 100 μg per mouse of the same collagen type as previously, but in the absence of adjuvant. […] Foodpad thickness was determined each day using a digital caliper EC1507 (Moore & Wright) accurate to 0.01 mm. The thickness of each footpad was determined three times on each day by a single operator blind to the treatment condition of the mouse, and the footpad thickness of each mouse on each day was reported as the mean for the three measurements for all four paws. Errors represent the standard error of the mean among the six animals in each group.

[4] = test system: anti-collagen type II antibodies; test: direct ELISA for anti-collagen type II antibodies in serum of collagen-induced arthritis mice; format: in vivo; conditions: day 39
Procedure: as §1
A direct ELISA for anti-collagen type II antibodies was used as an alternative assessment of the autoimmune response. Bovine type II collagen was coated onto Maxisorp 96-well ELISA plate wells (Nunc) at 1 μg/well in 50 μl of 50 mM sodium carbonate pH9.0 for 2 hours at 4° C. Wells were blocked with 5% Tween-20/5% sucrose in phosphate-buffered saline for 1 hour at room temperature. Mouse serum at various dilutions was incubated with the collagen-coated wells for 2 hours at room temperature. After three quick washes with tris-buffered saline +0.05% Tween-20, bound murine antibody was detected using a range of different anti-mouse IgG peroxidase conjugates (Pan-IgG A-9174 Sigma Chemical Co; IgA A-4789 Sigma Chemical Company; IgG1, G2a, G2b and G3 Southern Biotechnology) at 1:5000 dilution in tris-buffered saline +0.05% Tween-20 for 1 hour at room temperature. After three further washes, bound peroxidase label was visualised with K-BLUE chromogenic substrate (Skybio, Ltd.) for 20 minutes at room temperature, and the concentration of murine anti-collagen IgG in the serum quantitated by interpolating a standard curve constructed using known concentrations of the murine monoclonal anti-collagen type II IgG, CIICI (NIH Developmental Studies Hybridoma Bank).

[5] = translated from the relative risk; cited from earlier work
[6] = Tamoxifen treatment; cited from earlier work

## CC(=O)Oc1ccccc1C(=O)O [Aspirin, acetylsalicylic acid]
[1]; 10 μM A
  Level of mRNA, estimated by qPCR: tgfb2: 0.92 ± 0.10 fold-change
[1]; 33 μM A
  Level of mRNA, estimated by qPCR: tgfb2: 1.00 ± 0.17 fold-change
[1]; 100 μM A
  Level of mRNA, estimated by qPCR: tgfb2: 1.03 ± 0.16 fold-change

## CC/C(=C(\c1ccccc1)c1ccc(OCCN(C)C)cc1)c1ccccc1 [Tamoxifen]
[2]; after 24 hrs
  concentrations toxic to the cells: above 33 μM
[2]; after 72 hrs
  doses toxic to the cells: above 10 μM
[3]
  reduction of the maximal collagen-II induced footpad swelling: 36%
[4]; DBA/1 mice with collagen-induced arthritis
  Pan IgG binding to bovine collagen II, median concentration in serum: 181 µg/mL
[4]; neat serum
  IgG1 binding to bovine collagen II, median absorbance: <0.05*
  IgG2a binding to bovine collagen II, median absorbance: 0.081*
  IgG2b binding to bovine collagen II, median absorbance: 0.482*
  IgG3 binding to bovine collagen II, median absorbance: 0.069*
[5]
  reduction in risk of death from myocardial infarction: 33%
[6]
  endothelial function, a surrogate marker of atherosclerotic disease burden: improved endothelial function
